Measurements published in PubChem BioAssay AID2060882 (Molecular Pharmacology Branch, DTP, NCI, 2025).
pIC50: −log10 of the molar value. “And” between values parts separate entries of the source, which are not always exact repeats. Identical values can stand only once.

Test system: 898857-211-R-J1-PDC complex spheroids, growth % test/control
Assay: Anticancer human tumor 898857-211-R-J1-PDC patient-derived melanoma cell line growth inhibition [RAS]
Conditions: for viability, T/C: stronger effect = lower value
From the text: RAS pathway inhibitors in Combinations in Complex Spheroids
A high-throughput screen of multi-cell type tumor spheroids was designed to identify active combinations of RAS pathway inhibitors and targeted small molecules. Complex spheroids include a stromal component modeled by human endothelial cells (HUVEC) and fibroblasts modeled by human mesenchymal stem cells (MSCs). The concentration ranges selected for each drug and investigational agent were based upon clinically achievable concentrations if the clinical Cmax of the agent was known.
Compounds. The drugs and investigational agents: abemaciclib (NSC768073), cobimetinib (NSC768068), divarasib (GDC6063, NSC841802), docetaxel (NSC628503), GDC-1971 (RLY-1971, NSC841576), gemcitabine (NSC613327), inavolisib (NSC800729), ipatasertib (NSC767898), KB-0742 (NSC834161), MRTX-1133 (NSC836407), osimertinib (NSC779217), RMC-4630 (NSC839698), RMC-6236 (NSC851965), RMC-6291 (NSC852671), Ro-3306 (NSC812927), sapanisertib (NSC764658), SN-38 (NSC673596), staurosporine (NSC755774), SY5609 (NSC837396), and tovorafenib (DAY101, NSC766906), were obtained from the National Cancer Institute (NCI) Developmental Therapeutics Program Chemical Repository. The FDA-approved anticancer drug set is available from the NCI Developmental Therapeutics Program. […] The stock solutions were prepared in dimethyl sulfoxide (DMSO, Sigma-Aldrich, St. Louis, MO, cat. D2650) at 800-fold the tested concentration and stored at -70 degrees C prior to their use. All drugs and investigational agents were tested over a range starting from a high concentration at or near the clinical Cmax and decreasing in half-log increments. If the clinical Cmax for an agent had not been determined, the highest concentration tested was 10 microM.
Cell Culture. All cells were maintained in an incubator at 37 degrees C and 5% CO2 with 95% humidity. The PDC lines were cultured according to standard operating procedures established by the NCI PDMR. All PDCs were thawed and cultured in Matrigel-coated flasks prepared with a working solution of 1X Ham's F-12 nutrient mix, without supplementation (Invitrogen, Waltham, MA, cat. 11765054), 100 U/mL penicillin-streptomycin (Invitrogen, cat. 15140122), and 2.5% Matrigel (Corning Inc., Corning, NY, cat. 354248) for the first three passages. The 362531-283-R-J2-PDC and 782815-120-R-J1-PDC lines were cultured in 6C/Colon 1B media, which includes advanced DMEM/F-12 (Thermo Fisher Scientific, cat. 12634028), 10 mM HEPES (Thermo Fisher Scientific, cat. 15630080), 1X GlutaMAX supplement (Thermo Fisher Scientific, cat. 35050061), 0.1 mg/mL primocin (InvivoGen, San Diego, CA, cat. ant-pm-2), 10% defined fetal bovine serum, heat inactivated (HyClone Laboratories Inc., Logan, UT, cat. SH30070.03HI), 50% L-WRN conditioned media (ATCC, cat. CRL-3276), 1.25 mM N-Acetyl-L-cysteine (Sigma-Aldrich, cat. A9165), 10 mM nicotinamide (Sigma-Aldrich, cat. N0636), 1X B-27 supplement (Thermo Fisher Scientific, cat. 17504044), 1X N-2 supplement (Thermo Fisher Scientific, cat. 17502048), 50 ng/mL human EGF (Thermo Fisher Scientific, cat. PHG0311), and 10 microM Y-27632 dihydrochloride (Tocris Bioscience, cat. 1254). The K12877-001-R-J1-PDC line was cultured in 6I media, which includes all 6C/Colon 1B media plus 10 ng/mL human FGF-10 (PeproTech, cat. 100-26), 1 ng/mL human FGF-2 (PeproTech, cat. 100-18B), 1 µM prostaglandin E2 (Tocris Bioscience, cat. 2296), […] hydrocortisone (Sigma-Aldrich, cat. H4001), and […] bovine insulin (Sigma-Aldrich, cat. I6634). The K86415-001-R-J1-PDC line was cultured in 6D media, which includes all 6C/Colon 1B media components minus the L-WRN conditioned media. The 485176-168-R4-J1-PDC was cultured in PANC media, which includes all 6C/Colon 1B media plus 100 ng/mL human FGF-10 (PeproTech, cat. 100-26), 500 nM SB-431542 (Selleckchem, cat. S1067), and 10 nM gastrin (Tocris Bioscience, cat. 3006). […]
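Further: spheroids exposed to compound for seven days before readout.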
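Wherever viability, T/C is given: 100% = DMSO vehicle control wells.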

`NC1c2ccccc2OC12CCN(c1cnc3c(N4CCCc5ncccc54)n[nH]c3n1)CC2` (centres undefined) + CCn1c(-c2cccnc2C(C)OC)c2c3cc(ccc31)N1CCOC(CC(NC(=O)C(C(C)C)N(C)C(=O)C3(F)CCN(C(=O)C#CC(C)(C)N(C)C)CC3)C(=O)N3CCCC(N3)C(=O)OCC(C)(C)C2)C1 was tested. Which pIC50 (curve of first compound, second compound 0.000949 µM) did it give?
Its pIC50 is < 5.00.

What about the pIC50 (curve of first compound, second compound 0.003 µM) of the same compound?
Its pIC50 is < 5.00.

What about the pIC50 (curve of first compound, second compound 0.00949 µM) of the same compound?
Its pIC50 is < 5.00.

What about the pIC50 (curve of first compound, second compound 0.03 µM) of the same compound?
The pIC50 was < 5.00.

And the pIC50 (curve of first compound, second compound 0.0949 µM)?
Its pIC50 is < 5.00.

And the pIC50 (curve of first compound, second compound 0.3 µM)?
Its pIC50 is 5.10.

And the viability, T/C (second compound 0.000949 µM, first compound 0.0316 µM)?
The viability, T/C was 91.6%.

What about the viability, T/C (second compound 0.000949 µM, first compound 0.1 µM) of the same compound?
Its viability, T/C is 94.3%.

What about the viability, T/C (second compound 0.000949 µM, first compound 0.316 µM) of the same compound?
The viability, T/C was 99.9%.

And the viability, T/C (second compound 0.000949 µM, first compound 1 µM)?
Its viability, T/C is 90.7%.

What about the viability, T/C (second compound 0.000949 µM, first compound 3.16 µM) of the same compound?
Its viability, T/C is 101%.

And the viability, T/C (second compound 0.000949 µM, first compound 10 µM)?
Its viability, T/C is 70.9%.

And the viability, T/C (second compound 0.003 µM, first compound 0.0316 µM)?
Its viability, T/C is 95%.

What about the viability, T/C (second compound 0.003 µM, first compound 0.1 µM) of the same compound?
Its viability, T/C is 88.7%.

What about the viability, T/C (second compound 0.003 µM, first compound 0.316 µM) of the same compound?
The viability, T/C was 90.4%.

What about the viability, T/C (second compound 0.003 µM, first compound 1 µM) of the same compound?
The viability, T/C was 90.9%.

And the viability, T/C (second compound 0.003 µM, first compound 3.16 µM)?
The viability, T/C was 97.9%.

What about the viability, T/C (second compound 0.003 µM, first compound 10 µM) of the same compound?
Its viability, T/C is 67.8%.

What about the viability, T/C (second compound 0.00949 µM, first compound 0.0316 µM) of the same compound?
Its viability, T/C is 99%.

And the viability, T/C (second compound 0.00949 µM, first compound 0.1 µM)?
Its viability, T/C is 106%.

And the viability, T/C (second compound 0.00949 µM, first compound 0.316 µM)?
Its viability, T/C is 101%.

And the viability, T/C (second compound 0.00949 µM, first compound 1 µM)?
Its viability, T/C is 87.2%.

What about the viability, T/C (second compound 0.00949 µM, first compound 3.16 µM) of the same compound?
Its viability, T/C is 89%.

And the viability, T/C (second compound 0.00949 µM, first compound 10 µM)?
The viability, T/C was 74.3%.

What about the viability, T/C (second compound 0.03 µM, first compound 0.0316 µM) of the same compound?
The viability, T/C was 103%.

And the viability, T/C (second compound 0.03 µM, first compound 0.1 µM)?
The viability, T/C was 100%.

What about the viability, T/C (second compound 0.03 µM, first compound 0.316 µM) of the same compound?
Its viability, T/C is 101%.

What about the viability, T/C (second compound 0.03 µM, first compound 1 µM) of the same compound?
Its viability, T/C is 96.6%.

What about the viability, T/C (second compound 0.03 µM, first compound 3.16 µM) of the same compound?
The viability, T/C was 95.1%.

What about the viability, T/C (second compound 0.03 µM, first compound 10 µM) of the same compound?
Its viability, T/C is 63.8%.

And the viability, T/C (second compound 0.0949 µM, first compound 0.0316 µM)?
The viability, T/C was 82.9%.

And the viability, T/C (second compound 0.0949 µM, first compound 0.1 µM)?
Its viability, T/C is 87.2%.

What about the viability, T/C (second compound 0.0949 µM, first compound 0.316 µM) of the same compound?
Its viability, T/C is 97.7%.

What about the viability, T/C (second compound 0.0949 µM, first compound 1 µM) of the same compound?
Its viability, T/C is 91.1%.

What about the viability, T/C (second compound 0.0949 µM, first compound 3.16 µM) of the same compound?
Its viability, T/C is 84.8%.

And the viability, T/C (second compound 0.0949 µM, first compound 10 µM)?
The viability, T/C was 55.4%.

And the viability, T/C (second compound 0.3 µM, first compound 0.0316 µM)?
Its viability, T/C is 73.3%.

And the viability, T/C (second compound 0.3 µM, first compound 0.1 µM)?
The viability, T/C was 77.6%.

What about the viability, T/C (second compound 0.3 µM, first compound 0.316 µM) of the same compound?
Its viability, T/C is 67.9%.

What about the viability, T/C (second compound 0.3 µM, first compound 1 µM) of the same compound?
Its viability, T/C is 72.9%.

What about the viability, T/C (second compound 0.3 µM, first compound 3.16 µM) of the same compound?
Its viability, T/C is 72.6%.

What about the viability, T/C (second compound 0.3 µM, first compound 10 µM) of the same compound?
The viability, T/C was 44.1%.

Which results are given for `CC1(C)CCC(Nc2ncc(C(F)(F)F)c(-c3c[nH]c4c(P(C)(C)=O)c(C#N)ccc34)n2)CN1` (centres undefined)?
viability, T/C (compound 0.000949 µM): 92.3% and 96.9% and 98.6%; viability, T/C (compound 0.003 µM): 59.9% and 52.9% and 65.2%; viability, T/C (compound 0.00949 µM): 31.4% and 26.4% and 32.5%; viability, T/C (compound 0.03 µM): 20.2% and 16.2% and 24.3%; viability, T/C (compound 0.0949 µM): 17.3% and 16.8% and 20.4%; viability, T/C (compound 0.3 µM): 18.4% and 16.5% and 20%; pIC50 (curve of compound): 8.35 and 8.47 and 8.29
